# Measured values: US20030212061A1, “Aza-thioxanthenones with antitumor activity” (priority 2002, published 2003)
# System: HeLa S-3 cells
# Assay: Inhibition of cell growth (GI50), sulforhodamine B staining
# Format: cell-based
# Settings: GI50 of carbocyclic congener versus GI50 of aza-analog, HeLa cells
# Description: Growth inhibition (GI50) values were measured with HeLa S-3 cells selected for growth on plastic. The procedure was based on the protocol of Skehan et al. (Skehan, P., et al., J. Natl. Cancer Inst., 82:1107-1112 (1990), which is hereby incorporated by reference) HeLa cells were plated at 2×10^4 cells/well in 96 well plates. One day later, a control plate was fixed by addition of TCA to 5%. After five rinses with tap water, the plate was air dried and stored at 4° C. Test compounds were added to the remaining plates at 10-fold dilutions between 0.01 and 100 μM. Two days later, all plates were fixed as described above. Cells were then stained by the addition of 100 μl per well of 0.4% sulforhodamine B (SRB) in 1% acetic acid for 30 min at 4° C. Wells were then quickly rinsed 5×with acetic acid (1%) and allowed to air dry. The SRB was then solubilized by the addition of 100 μl per well of unbuffered 10 mM Tris base. Dye was quantified by measuring absorbance at 490 nm on a Molecular Devices kinetic microplate reader. Growth at each inhibitor concentration relative to the untreated control was calculated according to the following equation: percent growth=100×(T−To)/(C−To), where T was the average optical density (OD) of the test wells after 2 days of treatment, To was the average OD of the wells in the control plate on day 0 and C was the average OD of untreated wells. Plots of percent growth versus inhibitor concentration were used to determine the GI50.
# The data below shown in Table 4 summarizes the in vitro growth inhibition constants (GI50) of HeLa Cells for the compounds of the current invention.
# GI50 is the concentration of the compound that causes a 50 percent inhibition of tumor cell growth
row,SMILES,Folds Improvements
1,CCN(CC)CCNc1cccc2sc3ccncc3c(=O)c12 [drawing 98],3.5
2,CCN(CC)CCNc1ccc(CNC=O)c2sc3ccncc3c(=O)c12 [drawing 100],3
3,CCN(CC)CCNc1ccc(CN)c2sc3ccncc3c(=O)c12 [drawing 102],1
4,CCN(CC)CCNc1ccc(CNS(C)(=O)=O)c2sc3ccncc3c(=O)c12 [drawing 104],7.5
5,CCN(CC)CCNc1ccc(CNS(C)(=O)=O)c2sc3ccncc3c(=O)c12 [drawing 106],10

# Same assay, conditions: HeLa cells, Table 5, aza-analog; read-out: GI50 (Aza-Analog)
row,SMILES,GI50
1,CCN(CC)CCNc1ccc(CNS(C)(=O)=O)c2sc3ccncc3c(=O)c12 [drawing 106],300 nM

# Same assay, conditions: Homo sapiens, HeLa S3, 48 h, HeLa cells, 2 days of treatment, Table 4; read-out: GI50 Activity
row,SMILES,GI50
1,CCN(CC)CCNc1ccc(C=O)c2sc3ccccc3c(=O)c12,2000 nM
2,CCN(CC)CCN(C)c1ccc2c(=O)c3cnccc3sc2c1,> 10000 nM
3,CCN(CC)CCNc1ccc(CNC(=O)OC)c2sc3ccncc3c(=O)c12,300 nM
4,CCN(CC)CCn1nc2c3c(cccc31)Sc1ccncc1-2,1000 nM
5,CCN(CC)CCn1nc2c3c(c(CNC(=O)OC)ccc31)Sc1ccncc1-2,100 nM
6,CCN(CC)CCN(N)c1ccc2c(=O)c3cnccc3sc2c1,> 10000 nM
7,CCN(CC)CCn1nc2c3c(c(CNC=O)ccc31)Sc1ccncc1-2,200 nM
8,CCN(CC)CCn1nc2c3c(c(CN)ccc31)Sc1ccncc1-2,200 nM
9,CCN(CC)CCn1nc2c3c(cccc31)Sc1ccccc1-2,9000 nM
10,CCN(CC)CCn1nc2c3c(c(C=O)ccc31)Sc1ccccc1-2,2000 nM
11,CCN(CC)CCn1nc2c3c(c(CNC=O)ccc31)Sc1ccccc1-2,1000 nM
12,CCN(CC)CCn1nc2c3c(c(CN)ccc31)Sc1ccccc1-2,1000 nM
13,CCN(CC)CCn1nc2c3c(c(CNS(C)(=O)=O)ccc31)Sc1ccccc1-2,900 nM
14,CCN(CC)CCn1nc2c3c(c(CNC(=O)OC)ccc31)Sc1ccccc1-2,3000 nM
15,CCN(CC)CCNc1cccc2sc3ccccc3c(=O)c12 [drawing 74],> 10000 nM
16,CCN(CC)CCNc1ccc(CNC=O)c2sc3ccccc3c(=O)c12 [drawing 76],3000 nM
17,CCN(CC)CCNc1ccc(CN)c2sc3ccccc3c(=O)c12 [drawing 77],600 nM
18,CCN(CC)CCNc1ccc(CNS(C)(=O)=O)c2sc3ccccc3c(=O)c12 [drawing 78],3000 nM
19,CCN(CC)CCNc1ccc(CNC(=O)OC)c2sc3ccccc3c(=O)c12 [drawing 79],3000 nM
20,CCN(CC)CCNc1cccc2sc3ccncc3c(=O)c12 [drawing 81],3000 nM
21,CCN(CC)CCNc1ccc(CNC=O)c2sc3ccncc3c(=O)c12 [drawing 82],1000 nM
22,CCN(CC)CCNc1ccc(CN)c2sc3ccncc3c(=O)c12 [drawing 83],700 nM
23,CCN(CC)CCNc1ccc(CNS(C)(=O)=O)c2sc3ccncc3c(=O)c12 [drawing 84],400 nM

# Same assay, conditions: Homo sapiens, HeLa S3, HeLa cells, Table 5, aza-analog; read-out: GI50 (Aza-Analog)
row,SMILES,GI50
1,CCN(CC)CCNc1cccc2sc3ccncc3c(=O)c12 [drawing 98],3000 nM
2,CCN(CC)CCNc1ccc(CNC=O)c2sc3ccncc3c(=O)c12 [drawing 100],1000 nM
3,CCN(CC)CCNc1ccc(CN)c2sc3ccncc3c(=O)c12 [drawing 102],700 nM
4,CCN(CC)CCNc1ccc(CNS(C)(=O)=O)c2sc3ccncc3c(=O)c12 [drawing 104],400 nM

# Same assay, conditions: Homo sapiens, HeLa S3, HeLa cells, Table 5, carbocyclic congener; read-out: GI50 (Carbocic Congener)
row,SMILES,GI50
1,"CCN(CC)CCNc1cccc2sc3ccccc3c(=O)c12 [drawing 97, reference compound]",> 10000 nM
2,"CCN(CC)CCNc1ccc(CNC=O)c2sc3ccccc3c(=O)c12 [drawing 99, reference compound]",3000 nM
3,"CCN(CC)CCNc1ccc(CN)c2sc3ccccc3c(=O)c12 [drawing 101, reference compound]",600 nM
4,"CCN(CC)CCNc1ccc(CNS(C)(=O)=O)c2sc3ccccc3c(=O)c12 [drawing 103, reference compound]",3000 nM
5,"CCN(CC)CCNc1ccc(CNC(=O)OC)c2sc3ccccc3c(=O)c12 [drawing 105, reference compound]",3000 nM

# System: murine leukemia (L1210) and P388 leukemia cells
# Assay: not given
# Settings: in vitro L1210 and in vivo P388; cited from earlier work
row,SMILES,assessment as a potential antitumor agent
1,CN(C)CCNC(=O)c1cccc2c(=O)c3ccccc3sc12.Cl [N-[2-(dimethylamino)ethyl-]-9-oxo-9H-thioxanthene-4-carboxamide monohydrochloride],unlikely to worth pursuing
